This is an account of results in paper PMC5829251, “NAD^+ analog reveals PARP-1 substrate-blocking mechanism and allosteric communication from catalytic center to DNA-binding domains” (Nature Communications, 2018).

Molecules are shown by their SMILES. “Also recorded” adds a separate entry of the source.

One test concerns the target T1, PARP-1 (Homo sapiens, UniProt P09874).
T1 construct: Full-length PARP-1 WT (residues 1–1014) was cloned in pET28 vector; made in house; host or cells: E. coli
Nature of the test: HXMS analysis of PARP-1 dynamics. As to conditions: for HX of an ART active site peptide (a.a. 901–917): 10^4 s time point, PARP-1 alone or in complex with DNA. How it is done: Deuterium on-exchange was carried out at RT by mixing 5 µL of each sample (8 µM concentration) with 15 µL of deuterium on-exchange buffer (10 mM HEPES, pD 7.0, 150 mM NaCl, in D2O) yielding a final D2O concentration of 75%. pD values for deuterium-based buffers were calculated as pD = pH + 0.41[38]. Upon mixing with on-exchange buffer, the amide protons will be replaced over time with deuterons yielding an increased peptide mass. To quench the deuterium exchange reaction, the sample (20 µl) was mixed with 30 µl of ice-cold quench buffer (1.66 M guanidine hydrochloride, 10% glycerol, and 0.8% formic acid, for a final pH of 2.4–2.5) and rapidly frozen in liquid nitrogen. For the MS analysis, each sample (50 µL) was melted on ice and loaded onto an in-house packed pepsin column for digestion. Pepsin (Sigma) was coupled to POROS 20 AL support (Applied Biosystems), and the immobilized pepsin was packed into a column housing (2 mm × 2 cm, Upchurch). Pepsin-digested peptides were captured on TARGA C8 5 µm Piccolo HPLC column (1.0 × 5.0 mm, Higgins Analytical) and eluted through an analytical C18 HPLC column (0.3 × 75 mm, Agilent) by a shaped 12–100% buffer B gradient at 6 µL per min (Buffer A: 0.1% formic acid; Buffer B: 0.1% formic acid, 99.9% acetonitrile). The effluent was electrosprayed into the mass spectrometer. Non-deuterated (ND) PARP-1 samples were prepared in 10 mM HEPES, pH 7.0, 150 mM NaCl buffer, and mixed with the quench buffer to mimic the samples from on-exchange reaction. Peptides of ND samples were analyzed in tandem MS (LTQ Orbitrap XL, Thermo Fisher Scientific). We analyzed MS/MS data collected from these samples to identify potential PARP-1 peptides using SEQUEST (Bioworks v3.3.1, Thermo Fisher Scientific) with a peptide tolerance of 8 ppm and a fragment tolerance of 0.1 AMU. Deuterated samples were then analyzed on an Exactive Plus EMR-Orbritrap (Thermo Fisher Scientific). A MATLAB based program, ExMS[39] was used for HXMS data processing. […] The level of deuteration of individual peptides was measured by comparing them to the ND sample. […] For each peptide, we compare the extent of deuteration as measured in the FD sample to the theoretical maximal deuteration (i.e., if no back-exchange occurs); the median extent of back-exchange in our datasets is only 15%.
Peptide plotting and calculations were performed in MATLAB. […] For comparing two different HXMS datasets, we plot the percent difference of each peptide, which is calculated by subtracting the percent deuteration of one sample from that of another, and plotted according to the color legend in stepwise increments (as in Fig. 5b). […]

The target of another test is T2, PARP-1 CAT domain WT (Homo sapiens, UniProt P09874).
T2 construct: The PARP-1 CAT WT (residues 661–1014) was cloned in pET28 vector; made in house; host or cells: E. coli
T2 sequence (P09874 661-1014): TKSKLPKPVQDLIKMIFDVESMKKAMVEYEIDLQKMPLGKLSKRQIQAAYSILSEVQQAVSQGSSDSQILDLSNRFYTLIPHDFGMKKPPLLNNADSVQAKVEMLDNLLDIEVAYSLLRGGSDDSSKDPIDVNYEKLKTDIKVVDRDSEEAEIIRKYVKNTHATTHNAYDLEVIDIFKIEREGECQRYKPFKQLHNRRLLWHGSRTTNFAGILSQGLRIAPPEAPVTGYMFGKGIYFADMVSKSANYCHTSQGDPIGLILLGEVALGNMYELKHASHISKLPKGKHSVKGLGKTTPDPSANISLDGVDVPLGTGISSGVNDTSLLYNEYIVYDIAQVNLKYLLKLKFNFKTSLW
Nature of the test: Differential scanning fluorimetry (DSF), PARP-1 CAT WT. It counts as binding. The following applies: for change of apparent TM of PARP-1 CAT WT (evidence of binding): 5 μM protein, various amounts of compound; for TM: in °C (unit assumed). How it is done:
DSF experiments were performed as described, [13] using 5 µM protein, 2.5 µM DNA when indicated and various concentrations of compound (BAD, carba-NAD^+, benzamide, and ADP-ribose) as indicated in Fig. 1 and Fig. 3. Experiments were performed on a Roche LightCycler 480 RT-PCR. Reactions including DNA were performed with a 26- or 28-base pair (bp) unphosphorylated oligonucleotide for PARP-1, a 28-bp 5´-phosphorylated (5´P) oligonucleotide for PARP-2, and a 47-bp oligonucleotide including a central 5´P nick for PARP-3^13 in the following buffer: 25 mM Hepes pH 8.0, 150 mM NaCl, 1 mM EDTA, and 0.1 mM TCEP. Reactions with PARP-3 were conducted at lower ionic strength to allow binding to DNA as described (25 mM Hepes pH 8.0, 50 mM NaCl, 1 mM EDTA and 0.1 mM TCEP)[13]. ΔTM values were calculated by subtracting the TM determined for the protein in the absence of compound from the TM determined in the presence of compound. Experiments were performed in triplicate and a Boltzmann sigmoid was fit to the data to determine the TM values (KaleidaGraph).
For orientation: In DSF a fluorescence change marks the thermal transition of the protein.

Setting [1] is: Figure 1e, CAT WT 5 μM, compound 25 µM, TM without compound 51.58.
Where [2] appears, read: Figure 1e, CAT WT 5 μM, compound 150 µM, TM without compound 51.58.
Where [3] appears, read: Figure 1e, CAT WT 5 μM, compound 750 µM, TM without compound 51.58.
The mark [4] stands for this setting: Figure 1e, CAT WT 5 μM, compound 1500 µM, TM without compound 51.58.

T1 sequence (P09874 whole entry, the tested form may be a part): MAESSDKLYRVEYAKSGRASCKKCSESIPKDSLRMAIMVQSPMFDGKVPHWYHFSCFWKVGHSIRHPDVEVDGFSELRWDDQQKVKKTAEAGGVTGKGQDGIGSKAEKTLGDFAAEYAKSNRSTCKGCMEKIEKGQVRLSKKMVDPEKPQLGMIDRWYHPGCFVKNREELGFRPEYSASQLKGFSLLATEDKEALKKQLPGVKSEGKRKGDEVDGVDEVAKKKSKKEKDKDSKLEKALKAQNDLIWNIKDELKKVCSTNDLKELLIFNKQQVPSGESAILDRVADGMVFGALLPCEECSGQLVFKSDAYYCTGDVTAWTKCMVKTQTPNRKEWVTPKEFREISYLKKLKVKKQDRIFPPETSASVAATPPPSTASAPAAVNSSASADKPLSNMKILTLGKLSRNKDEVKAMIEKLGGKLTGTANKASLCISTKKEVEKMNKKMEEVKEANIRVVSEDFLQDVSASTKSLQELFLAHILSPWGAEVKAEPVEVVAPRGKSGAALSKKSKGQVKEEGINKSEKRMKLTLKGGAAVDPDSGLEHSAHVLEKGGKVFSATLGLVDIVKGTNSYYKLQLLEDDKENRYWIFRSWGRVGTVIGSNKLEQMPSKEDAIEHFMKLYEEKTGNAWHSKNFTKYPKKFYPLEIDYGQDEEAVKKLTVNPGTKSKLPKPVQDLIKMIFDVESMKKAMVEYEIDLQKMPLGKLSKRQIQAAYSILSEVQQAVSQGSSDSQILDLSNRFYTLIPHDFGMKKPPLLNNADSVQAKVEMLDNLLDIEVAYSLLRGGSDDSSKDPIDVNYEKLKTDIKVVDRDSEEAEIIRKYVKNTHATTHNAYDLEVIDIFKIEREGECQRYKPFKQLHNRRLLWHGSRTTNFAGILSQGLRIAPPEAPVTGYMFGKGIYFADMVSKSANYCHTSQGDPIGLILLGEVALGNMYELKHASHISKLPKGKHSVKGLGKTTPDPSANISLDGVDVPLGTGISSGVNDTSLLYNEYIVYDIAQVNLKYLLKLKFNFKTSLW

For the compound `NC(=O)c1cccc(C2OC(COP(=O)(O)OP(=O)(O)OCC3OC(n4cnc5c(N)ncnc54)C(O)C3O)C(O)C2O)c1` (stereo not shown) [BAD, benzamide adenine dinucleotide], the “HX in peptides localized to HD helices αB and αF” value on PARP-1 (10^2 s time point, PARP-1 bound to a DNA strand break) is recorded as “increased HX”. Further, the “HX of an ART active site peptide (a.a. 901–917)” value on PARP-1 is on record as “only observed with PARP-1 in complex with DNA”. Besides, the “HX in regions outside of the CAT (domain-domain and domain-DNA interfaces)” value on PARP-1 (PARP-1 in complex with DNA, not in the absence of DNA) is listed as “decrease in HX”. For the same compound, the “change of apparent TM of PARP-1 CAT WT (evidence of binding)” value on PARP-1 CAT domain WT is “neither BAD nor carba-NAD^+ changed the apparent TM; also recorded: did not show evidence of binding”. For the same compound, the “increase in TM of PARP-1 CAT containing the HD” value on PARP-1 CAT domain WT (4 mM BAD) was “no increase in TM”. Besides, the TM on PARP-1 CAT domain WT (setting [1]) was found to be 51.48; on PARP-1 CAT domain WT (setting [2]) it was 51.45; on PARP-1 CAT domain WT (setting [3]), 51.64; at PARP-1 CAT domain WT (setting [4]), 51.60; on PARP-1 CAT domain WT (Figure 1d, CAT WT 5 μM, compound 50 µM, TM without compound 51.23), 51.06; on PARP-1 CAT domain WT (Figure 1d, CAT WT 5 μM, compound 250 µM, TM without compound 51.23), 51.09. Also, the TM at PARP-1 CAT domain WT (Figure 1d, CAT WT 5 μM, compound 1250 µM, TM without compound 51.23) is reported as 51.30; at PARP-1 CAT domain WT (Figure 3d, PARP-1 CAT 5 μM, BAD 4 mM, TM without BAD 51.04), 51.21.

For `NC(=O)c1ccccc1` [benzamide], on PARP-1, the “HX of an ART active site peptide (a.a. 901–917)” value is “decreased HX in the same ART peptide for both PARP-1 alone and PARP-1 in complex with DNA”. For the same compound, the “change of apparent TM of PARP-1 CAT WT (evidence of binding)” value at PARP-1 CAT domain WT is on record as “increased the TM”. Further, the TM was 52.53 on PARP-1 CAT domain WT (setting [1]), 54.28 on PARP-1 CAT domain WT (setting [2]), 54.86 at PARP-1 CAT domain WT (setting [3]) and 57.12 on PARP-1 CAT domain WT (setting [4]).
